US9884874B2, “Bromodomain-inhibiting compounds and pharmaceutical composition comprising same for preventing or treating a cancer” (KAINOS MEDICINE, INC., priority 2014, dated 2018)

Experiments:
[1] = system: Daudi (B lymphoma); assay: Anti-proliferative activity, Daudi; format: cell-based; conditions: Homo sapiens, read-out: Cell proliferation, IC50
[2] = system: HL60 (acute promyelocytic leukemia); assay: Anti-proliferative activity, HL60; format: cell-based; conditions: Homo sapiens, HL-60, read-out: Cell proliferation, IC50
[3] = Pharmacokinetics in Sprague Dawley rats; format: in vivo, Sprague Dawley (SD) rats; conditions: plasma, rat
Description: (§1) For serum compound analysis, blood samples were collected by cardiac puncture over 24 hr time course. 20 μL of spiked plasma was added into a 96-well plate, adding ten volumes of internal standard (IS) in acetonitrile (ACN) to the obtained precipitated protein mixed thoroughly, centrifuged at 4,000 rpm for 10 min. 150 μL of supernatant thus obtained was transferred to another pre-labeled 96-well plate, mixed with 150 μL of water. 5 μL or 10 μL of the mixture was injected into the LC-MS system under the following conditions:
(§2) Column: API-4000+Waters UPLC (TCLM08);
(§3) Lower limit of quantification (LLOQ) was at 1 ng/mL. Pharmacokinetic parameters of half-life (T1/2), clearance (CL), maximum plasma concentration (Cmax), mean residence time (MRT) and bioavailability (F %), plasma exposure (AUC) of the compound were calculated using Phoenix WinNonlin 6.3 (non-compartmental model).
Also, pharmacokinetics of compound 1 was evaluated in Sprague Dawley (SD) rats following IV administration at 3 mg/kg or 10 mg/kg dose level, and PO administration at 3 mg/kg or 10 mg/kg dose level, respectively.

[4] = Human liver microsomal stability/clearance; format: in vitro ADME; conditions: human liver microsomes; first value of Human/Mouse cell; read-out: Liver microsomal clearance (Human)
Description: Human and mouse liver microsomal clearance assays were carried out in CROWN Biosciences (Taicang, China). The human liver microsomes (Cat No. X008067, Lot No. KQB) and mouse liver microsomes (Cat No. M1000, Lot No. 1210302) were purchased from Celsis and Xenotech, respectively.
5 μL of test compound stock solution was diluted with 495 μL of 1:1 Methanol/Water (final concentration: 100 μM, 50% MeOH) and combined with 534 μL of the respective liver microsome solution (final concentration: 1.111 μM, 0.555% MeOH). The final concentration of the liver microsome solution was 0.7 mg protein/mL.
Incubations of the liver microsome solutions were performed in a 96 well plate at 37° C. 90 μL of the liver microsome solutions were added to Blank, and 90 μL of working solution of the test compound was added to all plates except the Blank.
All plates thus obtained were warmed in water bath at 37° C. for 10 min, and 10 μL of NADPH co-factor solution comprising 42 mg of β-nicotinamide adenine dinucleotide phosphate (Sigma Cat. No. N0505 Lot 020M7009V), 84 mg of isocitric acid (Sigma Cat. No. 11252 Lot 119K1099) and 0.478 mL of isocitric dehydrogenase (Sigma Cat. No. 12002 Lot 086K7055, 15 units/mg protein, warmed in water bath at 37° C. for 5 min was added to the plates. The resulting plates were incubated at 37° C. in the following order: T60 (The test compounds were incubated with the liver microsomal solution and NADPH for 60 min at 37° C.), T30 (such as for 30 min.), and T10 (such as for 10 min.). 300 μL of a cold (4° C.) stop solution (acetonitrile (ACN) including 500 nM of tolbutamide as internal standard) and 10 μL of NADPH co-factor solution to starting plate (T0: 100% of the parent compound without any reaction) were added to the plates. The reaction was stopped by adding 300 μL of the cold (4° C.) stop solution to the other plates in the following order: T10 first, then T30 and T60.
The samples were centrifuged at 4,000 rpm for 20 min and transferred to Bioanalytical Services for liquid chromatography-mass spectrometry (LC-MS)/MS (Waters UPLC/API 4000, 10 μL injection) analysis.

[5] = Pharmacokinetics in beagle dogs; format: in vivo; conditions: plasma, dog, 3 mg/kg
Description: as §1, §2, §3
Further, pharmacokinetics of Compound 1 in dog was evaluated in beagle dogs following IV administration at 3 mg/kg and PO administration at 3 mg/kg dose level, respectively.

[6] = system: MV4-11 (human leukemia cell line); assay: Anti-proliferative activity test (CellTiter-Glo), MV4-11; format: cell-based; conditions: second value of LnCAP/MV4-11 cell, read-out: Cell proliferation IC50 (MV4-11)
Description: IC50 (uM) of the compounds obtained in Examples 1 to 18 against hematological cancer cells and solid tumors was measured for identifying anti-proliferative activities.
A human prostatic adenocarcinoma cell line, LnCAP (ATCC®, CRL-1740) and human leukemia cell line MV4-11 (ATCC®, CRL-9591) were used to test the degrees of the compounds 1 to 18 in inhibiting the cancer cell growth. The testing cell concentration was adjusted to 6.7×10^3 cells/ml with a culture medium supplemented with 10% FBS, in the temperature of 37° C., 5% CO2 and 95% humidity. Culture media and FBS were purchased from GIBCO. 90 μL of cell suspensions thus obtained was added to two 96-well plates with the final cell density of 600 cells/well, followed by addition of 10 μL of culture medium to each well of plate. The plates were incubated overnight in a humidified incubator at 37° C. with 5% CO2.
Compounds 1 to 18 were each dissolved with dimethylsulfoxide (DMSO) or phosphate buffer solution (PBS) as a stock solution, and 200× solutions of test compound (2 mM) using DMSO were prepared. Then, the DMSO solution thus obtained was diluted 20-fold with culture medium or PBS to obtain 10× working solution. 10 μL of 10× working solution (drug solution) was dispensed to each well (triplicate for each concentration). The final concentration of DMSO in culture medium was 0.5% [v/v].
Cell viability was determined using CellTiter-Glo® (CTG) assay. 100 μL of CellTiter-Glo® was added to the equal volume of the cultured cells to read luminescence in EnVision Multi Label Reader.

[7] = system: SK-LU-1 (adenocarcinoma); assay: Anti-proliferative activity, SK-LU-1; format: cell-based; conditions: Homo sapiens, SKLU-1 (Adenocarcinoma), read-out: Cell proliferation, IC50
[8] = system: MDA-MB-435 (breast); assay: Anti-proliferative activity, MDA-MB-435; format: cell-based; conditions: Homo sapiens, read-out: Cell proliferation, IC50

COc1ccc2c(c1)C(c1ccc(Cl)cc1)=N[C@@H](COS(C)(=O)=O)c1nnc(C)n1-2 [Compound 1, (R)-(6-(4-chlorophenyl)-8-methoxy-1-methyl-4H-benzo[f]-[1,2,4]triazolo[4,3-a][1,4]diazepin-4-yl)methyl methanesulfonate]
IC50 [1]: 5.09 µM
IC50 [2]: 1.24 µM
AUC ([3]; IV, 3 mg/kg): 2 µM·h
clearance ([3]; IV, 3 mg/kg): 54.8 mL/min/kg
AUC ([3]; IV, 10 mg/kg): 15.4 µM·h
MRT ([3]; IV, 10 mg/kg): 1.86 h
clearance ([3]; IV, 10 mg/kg): 24.9 mL/min/kg
AUC ([3]; PO, 3 mg/kg): 1 µM·h
bioavailability ([3]; PO, 3 mg/kg): 50.6%
AUC ([3]; PO, 10 mg/kg): 13.6 µM·h
bioavailability ([3]; PO, 10 mg/kg): 88.6%
microsomal CLint at 1 µM [4]: 2.3 µL/min/mg
AUC ([5]; IV): 19.7 µM·h
MRT ([5]; IV): 4.9 h
clearance ([5]; IV): 5.6 mL/min/kg
AUC ([5]; PO): 17.3 µM·h
bioavailability ([5]; PO): 92.3%
IC50 [6]: 0.31 µM
IC50 [7]: 6.96 µM
IC50 [8]: 5.99 µM
